Test [1] deals with KMS.12.BM cell line (human myeloma). Kind of test: KMS.12.BM cell viability assay. It is filed as cell-based. The settings on record: KMS.12.BM cells, 3 days, Cell Titer-GLO ATP quantitation, read-out: KMS cellular IC50. As to the method:
KMS. 12.BM cell line (human myeloma) was purchased from JCRB (Osaka, Japan) and maintained in RPMI with 10% FBS culture medium. To measure the cytotoxic activity of the compounds through ATP quantitation, the KMS. 12.BM cells are plated in the RPMI culture medium at 5000 cells/well/per 100 μL into a 96-well polystyrene clear black tissue culture plate (Greiner-bio-one through VWR, NJ), in the presence or absence of a concentration range of test compounds. After 3 days, […] Cell Titer-GLO Luminescent (Promega, Madison, Wis.) cell culture agent is added to each well for 10 minutes at room temperature to stabilize the luminescent signal. This determines the number of viable cells in culture based on quantitation of the ATP present, which signals the presence of metabolically active cells. Luminescence is measured with the Top Count 384 (Packard Bioscience through Perkin Elmer, Boston, Mass.). […] IC50 data for the Examples is presented in Table 4 as determined by Assay B1.
In general terms: Cellular ATP, detected with luciferase, serves as a proxy for viable cell number.

Test [2] deals with BRD4-BD1 (Homo sapiens (Human), UniProt O60885). Kind of test: BRD4 AlphaScreen assay (BRD4-BD1). The settings on record: H4Ac4 peptide, 3.8 nM BRD4-BD1, read-out: BRD4 BD-1 enzyme IC50. It is filed as binding. As to the method:
(§1) BRD4-BD1 and BRD4-BD2 assays were conducted in white 384-well polystyrene plate in a final volume of 20 μL for BD1 and 40 μL for BD2. Inhibitors were first serially diluted in DMSO and added to the plate wells before the addition of other reaction components. The final concentration of DMSO in the assay was 1.25% (BD1) and 0.83% (BD2). The assays were carried out at room temperature for 75 min. in the assay buffer (50 mM HEPES, pH 7.4, 100 mM NaCl, 0.05% CHAPS, 0.01% BSA), containing 50 nM Biotin-labeled tetra-acetylated histone H4 peptide (H4Ac4), 3.8 nM (BRD4-BD1, BPS Bioscience #31040) or 20 nM (BRD4-BD2, BPS Bioscience #31041). The reaction followed by the addition of 20 μL of assay buffer supplemented with Streptavidin donor beads (PerkinElmer 6760002) and GSH Acceptor beads (PerkinElmer-AL109C) at 4 μg/mL under reduced light. After plate sealing, the plate was incubated in the dark at room temperature for 75 min. before reading on a PHERAstar FS plate reader (BMG Labtech). IC50 determination was performed by fitting the curve of percent control activity versus the log of the inhibitor concentration using the GraphPad Prism 5.0 software.
Background: In Alpha technology, singlet oxygen from a donor bead excites a nearby acceptor bead.

Test [3] concerns the target BRD4-BD2 (Homo sapiens (Human), UniProt O60885). The test can be described thus: BRD4 AlphaScreen assay (BRD4-BD2). It is filed as binding. The settings on record: H4Ac4 peptide, 20 nM BRD4-BD2, read-out: BRD4 BD-2 enzyme IC50. The procedure:
as §1

Structures can show the parent of a compound that is named as a salt. Where two headings read alike, the source gives them in different places.

As usually defined, the IC50 is the concentration that inhibits the measured activity by half. Regarding `Cc1cc2c(cc(N[C@H]3CCN(C)[C@@H](C)C3)c3nnc(C)n32)n1Cc1ccccc1` (racemic) [Example 224, 6-Benzyl-N-[(2S,4S)-1,2-dimethylpiperidin-4-yl]-1,7-dimethyl-6H-pyrrolo[2,3-e][1,2,4]triazolo[4,3-a]pyridin-4-amine and 6-Benzyl-N-[(2R,4R)-1,2-dimethylpiperidin-4-yl]-1,7-dimethyl-6H-pyrrolo[2,3-e][1,2,4]triazolo[4,3-a]pyridin-4-amine (Racemic Mixture Prepared)], the half-maximal inhibitory concentration (IC50) was at most 1000 nM in test [1] (Homo sapiens, 72 h); at most 100 nM in test [2]; at most 100 nM in test [3].

In the case of `Cc1nnc2ccc3c(cc(-c4ccn(CCC(=O)N(C)C)n4)n3Cc3cccc(Cl)c3)n12` [Example 103, 3-{3-[6-(3-chlorobenzyl)-1-methyl-6H-pyrrolo[2,3-e][1,2,4]triazolo[4,3-a]pyridin-7-yl]-1H-pyrazol-1-yl}-N,N-dimethylpropanamide], the IC50 in test [1] (Homo sapiens, 72 h) was at most 1000 nM.

As for `Cc1nnc2ccc3c(cc(-c4cc[nH]n4)n3Cc3cccc(CN4CCC4)c3)n12` [Example 182, 6-[3-(Azetidin-1-ylmethyl)benzyl]-1-methyl-7-(1H-pyrazol-3-yl)-6H-pyrrolo[2,3-e][1,2,4]triazolo[4,3-a]pyridine tris(trifluoroaceate) Salt], the IC50 in test [1] is at most 1000 nM.

For the origin of these results see patent publication US11091484B2, “Tricyclic heterocycles as BET protein inhibitors” (Incyte Corporation, priority 2013, dated 2021).
